Laboratory results as given in patent publication US20130309224A1 (BOEHRINGER INGELHEIM INTERNATIONAL GMBH, priority 2012, published 2013).

T1: human CD37 (human, UniProt P11049 1-281, limits assumed)
T1 sequence (looked up): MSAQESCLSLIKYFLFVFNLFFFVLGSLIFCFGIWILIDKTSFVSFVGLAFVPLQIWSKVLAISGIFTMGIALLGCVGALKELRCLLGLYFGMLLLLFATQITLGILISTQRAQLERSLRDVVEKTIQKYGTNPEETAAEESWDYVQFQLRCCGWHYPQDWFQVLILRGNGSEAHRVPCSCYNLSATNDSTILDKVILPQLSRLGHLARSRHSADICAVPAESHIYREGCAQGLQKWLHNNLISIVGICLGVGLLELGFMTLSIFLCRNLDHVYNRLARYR

T2: mouse CD37 (mouse, UniProt Q61470 1-281, limits assumed)
T2 sequence (looked up): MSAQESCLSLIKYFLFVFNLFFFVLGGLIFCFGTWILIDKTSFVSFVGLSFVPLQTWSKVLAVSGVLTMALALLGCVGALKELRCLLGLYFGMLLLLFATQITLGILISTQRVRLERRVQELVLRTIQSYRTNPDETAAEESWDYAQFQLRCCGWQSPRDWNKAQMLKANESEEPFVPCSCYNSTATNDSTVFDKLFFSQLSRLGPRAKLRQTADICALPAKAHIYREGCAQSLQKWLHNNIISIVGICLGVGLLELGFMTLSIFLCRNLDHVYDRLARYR


What was measured:
[1] = system: Raji Burkitt lymphoma cells; assay: Apoptosis assay (Annexin V/PI staining, FACS) on Raji cells; type: cell-based; details: 48 h, A2 10 μg/ml, AnnexinV positive cells corrected for background
[2] = system: Ramos Burkitt lymphoma cells; assay: Apoptosis assay (Annexin V/PI staining, FACS) on Ramos cells; type: cell-based, human; details: 48 h, A2 10 μg/ml, AnnexinV positive cells corrected for background
DoHH2 tumor cells = assay: Example 2: DoHH2 human xenograft tumor model, A2 with bendamustine; type: in vivo, CB-17 SCID mice; details: A2 10 mg/kg twice weekly, bendamustine 10 mg/kg twice weekly ip; compared to control treated animals
[3] = system: human follicular lymphoma (DOHH2); assay: Example 4: DOHH2 follicular lymphoma xenograft, A2 with bendamustine, tumor volume; type: in vivo, C.B-17 scid mice
[4] = Example 4: body weight as indicator of tolerability; details: for tolerability / body weight loss (in words): A2 10 mg/kg, bendamustine 20 mg/kg i.p.
human CD37 = target: T1, human CD37; assay: not described (statement in the discussion of Example 3)
mouse CD37 = target: T2, mouse CD37; assay: as above
[5] = bendamustine concentration 400 μM

binding result (human CD37) | binding result (mouse CD37) | Molecule | % apoptotic cells ([1]; bendamustine concentration 200 μM) | % apoptotic cells [1, 5] | % apoptotic cells ([2]; bendamustine concentration 100 μM) | % apoptotic cells [2, 5] | anti-tumor effect (tumor growth retardation) (DoHH2 tumor cells) | inhibition of DOHH2 tumor growth (in words) ([3]; A2 10 mg/kg, bendamustine 20 mg/kg i.p.) | CR [x/7] ([3]; complete tumor regressions, day 16) | tumors growth inhibited (of 7 treated) ([3]; day 16) | TGI [%] ([3]; median, day 16, vs vehicle control, A2 10 mg/kg i.p. d1,d5,d8,d12,d15, bendamustine 20 mg/kg i.p. two injections) | PR [x/7] ([3]; partial tumor regressions, day 16) | tolerability / body weight loss (in words) [4] | tolerability / body weight loss (in words) ([4]; listed as Bendamustine) | body weight loss in median within the first week of treatment ([4]; bendamustine i.p. day 2 and 6)
 |  | Cn1c(CCCC(=O)O)nc2cc(N(CCCl)CCCl)ccc21 [bendamustine, 4-[5-[Bis(2-chloroethyl)amino]-1-methylbenzimidazol-2-yl]butanoic acid, reference compound] | 10% | 13% | 19% | 35% | significant anti-tumor effect | significant inhibition of tumor growth | 0 x/7 | 7 tumors | 57% | 0 x/7 | moderately tolerated | resulted in weight loss | up to 7.9%
binds | no binding | Antibody A2 (antibody, human IgG1, kappa, V domains shown, also called mAb A2; MAb A2) VH: AVQLQQSGPELEKPGASVKISCKASGYSFTGYNMNWVKQNNGKSLEWIGNIDPYYGGTTYNRKFKGKATLTVDKSSSTAYMQLKSLTSEDSAVYYCARSVGPMDYWGQGTSVTVSS VL: DIQMTQSPASLSASVGETVTITCRTSENVYSYLAWYQQKQGKSPQLLVSFAKTLAEGVPSRFSGSGSGTQFSLKISSLQPEDSGSYFCQHHSDNPWTFGGGTELEIKR |  |  |  |  |  |  |  |  |  |  |  |  | 
